Results reported in US20080249064A1, “Activities of an active principle obtained from powdered alfalfa seeds (Medicago sativa), active principle used and process of obtaining the same” (SOCIETE INDUSTRIELLE LIMOUSINE D'APPLICATION BIOLOGIQUE …, priority 2004, published 2008).

What was measured:
[1] = test system: cutaneous micro-relief; assay: Smoothing effect on cutaneous micro-relief of forearms in volunteers (profilometer); type: in vivo, human; conditions: active principle 4% or retinol 0.15% in emulsion, bi-daily for 28 days, against placebo
Experimental: The active principle is formulated at 4% in emulsion, and retinol is formulated at 0.15% in an emulsion. The 2 formulations are tested on 2 groups of volunteers, against a placebo. The tests are carried out and the influence of the active principle or of retinol on the appearance of cutaneous micro-relief, after bi-daily application for 28 days. The analyses are carried out by observation of prints of the cutaneous micro-relief with the help of a profilometer associated with an image analyzer. The zones in question in this study are cutaneous zones of the forearms. The observed parameter is the mean rugosity of the micro-contour.

[2] = test system: collagen I; assay: Synthesis of collagen I in human fibroblasts by ELISA dosage; type: cell-based; conditions: normal human fibroblasts; retinol at 10^-5 M
Experimental: The study is conducted on human fibroblasts by ELISA dosage. The fibroblasts are incubated in the presence or not of the active principle, of the fractions or of retinol at 10^−5 M. The results are shown in FIG. 2. Tests have been carried out on normal human fibroblasts by ELISA dosage. The fibroblasts were treated with retinol at 10^−5 M or with the active principle at 0.1%, 0.25% and 0.5%.

[3] = test system: skin; assay: Irritating skin reactions in volunteers of the in vivo studies; set-up: species or system human; conditions: topical emulsion (active principle 4%, retinol 0.15%), bi-daily for 28 days
Experimental: The active principle is formulated at 4% in an emulsion. Retinol is formulated at 0.15% in an emulsion.
The 2 formulae are tests and 2 groups of volunteers, against a placebo.
The tests have shown the influence of the active principle or of retinol on the appearance of crows-feet wrinkles, after bi-daily application for 28 days.
The active principle is formulated at 4% in emulsion, and retinol is formulated at 0.15% in an emulsion.
The 2 formulations are tested on 2 groups of volunteers, against a placebo.
The tests are carried out and the influence of the active principle or of retinol on the appearance of cutaneous micro-relief, after bi-daily application for 28 days.

CC1=C(/C=C/C(C)=C/C=C/C(C)=C/CO)C(C)(C)CCC1 [retinol]
smoothing effect on the micro-contour (mean rugosity) relative to the comparison [1]: 8%
increase of the synthesis of collagen I [2]: 171%
irritating skin reactions [3]: reactions of the irritating skin type
